Key:
Format in all cases: cell-based
MCF-7 cells = test: Inhibition of cell proliferation of MCF-7 cells (CCK-8, 9 days); settings: treated for 9 days, CCK-8 kit (Table 6)
From the text: Test Example 4 Inhibitory effect of the PROTAC compounds disclosed in the present disclosure on cell proliferation of MCF-7 cells
The complete medium required for MCF-7 cells (source ATCC) was DMEM (gibco, Product number :11995-065) basal medium containing 10% fetal bovine serum. MCF-7 cells were inoculated in 96-well plates at a density of 800 cells/well, and different concentrations of the PROTAC compounds 1-55 provided in the embodiments of the present disclosure and a positive control sample ARV-471 (source: Innochem) were prepared to treat cells, and cells were treated at 37°C in a cell culture incubator with 5% CO2 for 9 days. Cell viability was detected using a CCK -8 kit (Beyotime , Product number: C0040) according to the manufacturer's instruction. […] Table 5 IC50 values for inhibition of the proliferation of MCF-7 cells by the PROTAC compounds of the present disclosure and positive control sample

ERα [1] = biological target: T1, ERα (Homo sapiens, UniProt P03372); test: Degradation of ERα in MCF-7 cells (immunoblotting, 4 h)
T1 sequence (P03372 1-595): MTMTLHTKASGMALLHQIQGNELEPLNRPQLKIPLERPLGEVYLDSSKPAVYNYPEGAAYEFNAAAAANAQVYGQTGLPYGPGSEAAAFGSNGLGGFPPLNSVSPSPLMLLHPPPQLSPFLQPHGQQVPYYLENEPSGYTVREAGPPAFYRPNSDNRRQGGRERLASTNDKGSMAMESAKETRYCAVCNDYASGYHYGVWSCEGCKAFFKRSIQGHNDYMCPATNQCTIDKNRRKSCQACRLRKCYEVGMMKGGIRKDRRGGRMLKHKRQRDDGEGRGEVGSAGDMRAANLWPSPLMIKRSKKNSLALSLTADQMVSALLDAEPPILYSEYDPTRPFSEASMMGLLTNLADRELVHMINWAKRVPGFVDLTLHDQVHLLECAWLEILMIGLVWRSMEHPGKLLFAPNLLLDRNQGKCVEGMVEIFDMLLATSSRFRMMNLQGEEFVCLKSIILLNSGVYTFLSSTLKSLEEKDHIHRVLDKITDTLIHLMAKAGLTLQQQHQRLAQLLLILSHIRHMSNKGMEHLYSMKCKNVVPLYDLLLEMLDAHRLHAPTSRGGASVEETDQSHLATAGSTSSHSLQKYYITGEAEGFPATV
Method: MCF-7 cells were inoculated into 6-well plates at a density of 3×10^5 cells/well and cultured at 37°C, 5% CO2 for 24h. After the cells were attached to the wall, 1µL of the compound solution in dimethyl sulfoxide (final concentration 0.15-1000nM) was added and continued to be cultured in incubator at 37°C with 5% CO2 for 4 h. After 4 h, the culture medium was discarded, and each well was washed once with pre-cooled 1×DPBS, and the cells were lysed with a mixture of 50 µL of RIPA lysis buffer (P0013B, Beyotime) and 1× protease inhibitor (P1005, Beyotime), and then centrifuged at 14,000 g for 30 min at 4°C after resting on ice for 20 min, and the supernatant was carefully collected to detect the protein level of ERα by protein immunoblotting (Immunoblotting).
Protein immunoblotting: The total protein concentration in the collected cell lysate supernatant was determined by BCA Protein Concentration Assay Kit (Enhanced) (P0009, Beyotime). According to the total protein concentration detected by BCA, the protein was adjusted to 1 µg/µL with RIPA lysis buffer and 5× SDS-PAGE protein loading buffer (MB01015, Genscript), and the protein was denatured by water bath at 95°C for 5 min, and then centrifuged after denaturation to enrich the condensate on the wall of the centrifuge tubes as a loading sample. […] At the end of electrophoresis, the proteins in the SDS-PAGE gels were transferred to a PVDF membrane at a constant voltage of 100 V for 60 min. After that, the PVDF membrane corresponding to ERα protein and internal reference protein was cut out and incubated in 1×QµickBlock blocking solution (P0252, Beyotime) for 30 min at room temperature on a shaker. […] Protein profiles were analyzed by Image Studio Lite analysis software for grayscale values. Grayscale correction values were calculated for each sample using the Formula: corrected grayscale value = grayscale value of the target protein /corresponding grayscale value of the internal reference. The degradation rate for the compounds was then calculated by comparing the corrected grayscale values of the compound group to the control group. Table 7 Degradation rate (%) of ERα by the PROTAC compounds of the present disclosure and positive control sample in MCF-7 cells

ERα [2] = biological target: T1, ERα; test: Degradation of ERα in T-47D cells (immunoblotting, 4 h); set-up: host or cells: T-47D
Method: T-47D cells were inoculated into 6-well plates at a density of 3×10^5 cells/well and cultured at 37°C, 5% CO2 for 24 h. After the cells were attached to the wall, 1µL of the compound solution in dimethyl sulfoxide (final concentration 0.15-1000 nM) was added and continued to be cultured in the incubator with 5% CO2 at 37°C for 4 h. After 4 h, the culture medium was discarded, and each well was washed once with pre-cooled 1×DPBS, and the cells were lysed with a mixture of 50 µL of RIPA lysis buffer (P0013B, Beyotime) and 1× protease inhibitor (P1005, Beyotime), and then centrifuged at 14,000 g for 30 min at 4°C after resting on ice for 20 min, and the supernatant was carefully collected to detect the protein level of ERα by protein immunoblotting (Immunoblotting).

| IC50 (MCF-7 cells) [µM] | Degradation rate (%) of ERα in MCF-7 cells (ERα [1]; 1nM compound) [%] | Degradation rate (%) of ERα in MCF-7 cells (ERα [1]; 10nM compound) [%] | Degradation rate (%) of ERα in T-47D cells (ERα [2]; 1nM compound) [%] | Degradation rate (%) of ERα in T-47D cells (ERα [2]; 10nM compound) [%] | SMILES |
| --- | --- | --- | --- | --- | --- |
| 0.0419 | 18 | 71 | 40 | 75 | O=C1CCC(N2Cc3cc4c(cc3C2=O)OC2(CC4)CN(C(=O)CN3CCC4(CC3)CCN(c3ccc([C@@H]5c6ccc(O)cc6CC[C@@H]5c5ccccc5)cc3)CC4)C2)C(=O)N1 (stereo partly shown) [A70] |
| 0.0145 | 32 | 73 | 52 | 86 | O=C1CCC(N2Cc3c(ccc4c3OCC43CCN(CCN4CCC5(CC4)CCN(c4ccc([C@@H]6c7ccc(O)cc7CC[C@@H]6c6ccccc6)cc4)CC5)CC3)C2=O)C(=O)N1 (stereo partly shown) [A71] |
| 6.84 | 33 | 64 | 39 | 51 | O=C1CCC(N2Cc3c(ccc4c3OCC43CCN(CC(=O)N4CCC5(CC4)CCN(c4ccc([C@@H]6c7ccc(O)cc7CC[C@@H]6c6ccccc6)cc4)C5)CC3)C2=O)C(=O)N1 (stereo partly shown) [A72] |
| 4.17 | 26 | 72 | 55 | 73 | O=C1CCC(N2Cc3c(ccc4c3OCC43CCN(CC(=O)N4CCC5(CCN(c6ccc([C@@H]7c8ccc(O)cc8CC[C@@H]7c7ccccc7)cc6)CC5)C4)CC3)C2=O)C(=O)N1 (stereo partly shown) [A73] |
| 0.00771 | 16 | 14 | 53 | 76 | O=C1CCC(N2Cc3c(ccc4c3OCC43CCN(C(=O)CN4CCC5(CC4)CCN(c4ccc([C@@H]6c7ccc(O)cc7CC[C@@H]6c6ccccc6)cc4)C5)CC3)C2=O)C(=O)N1 (stereo partly shown) [A75] |
| 19.3 | -6 | 12 | 40 | 68 | O=C1CCC(N2Cc3cc4c(cc3C2=O)CCC2(CN(C(=O)CN3CCC5(CCN(c6ccc([C@@H]7c8ccc(O)cc8CC[C@@H]7c7ccccc7)cc6)CC5)C3)C2)O4)C(=O)N1 (stereo partly shown) [A76] |
| 52.1 | 29 | 61 | 54 | 78 | O=C1CCC(N2Cc3cc4c(cc3C2=O)OC2(CC4)CN(C(=O)CN3CCC4(CCN(c5ccc([C@@H]6c7ccc(O)cc7CC[C@@H]6c6ccccc6)cc5)CC4)C3)C2)C(=O)N1 (stereo partly shown) [A77] |
| 0.00335 | 64 | 78 | 79 | 89 | O=C1CCC(N2Cc3c(ccc4c3OCC43CCN(C4CCN(C(=O)C5CCN(c6ccc([C@@H]7c8ccc(O)cc8CC[C@@H]7c7ccccc7)cc6)CC5)CC4)CC3)C2=O)C(=O)N1 (stereo partly shown) [A78] |

Source: patent EP4656642A1, “ESTROGEN RECEPTOR PROTEOLYSIS TARGETING CHIMERA COMPOUND AND USE THEREOF” (GAN & LEE PHARM CO., LTD, priority 2023, dated 2024)
